Like-named read-outs stand apart in the source and are kept apart here.
Legend:
[1] = system: breast adenocarcinoma cells SK-BR-3; assay: In vitro inhibitory activity of compounds (small molecule toxins), CCK-8 cell growth assay; format: cell-based; details: Homo sapiens; Inhibitory activity against SK-BR-3; small molecules, 72 h incubation
Method: (§1) Human esophageal cancer cells OE33, and human breast adenocarcinoma cells SK-BR-3 were cultured in RPMI1640 (Cellmax) containing 10% fetal bovine serum (Cellmax), respectively. Cells in the exponential growth phase were diluted to a concentration of 1×10^5cells/mL by culture medium and added to 96-well cell culture plates at 100µL per well, then incubated overnight in a 37°C incubator with 5% CO2. On the following day, the small molecules were diluted with culture medium to 10,000 nM, 2,000 nM, 400 nM, 80 nM, 16 nM, 3.2 nM, 0.64 nM, 0.13 nM, respectively, and the diluted compounds were added to 96-well cell culture plates at 2 µL per well, with three replicate wells set-up for each concentration, and for the negative and blank control groups, in which the compounds had not been added, 2 µL of dilution was added per well. After the addition, the plates were returned to the 37°C incubator with 5% CO2 to continue incubation for 72 h. After incubation, the cell culture plates were removed, and the culture medium was aspirated using a pipette. Then, 100µL of culture medium containing 10% CCK-8 was added to each well, and the plates were incubated at 37°C for 3 hours. After incubation, the plates were removed, kept in the dark, and placed in ELISAplate. Absorbance was measured at 630nm as the reference wavelength and 450nm as the test wavelength. The IC50 values (Tables 1-3) were calculated using the four-parameter logistic regression method in GraphPad, based on the absorbance values. DNA topoisomerase I inhibitor Dxd was used as positive control drug.

[2] = system: esophageal cancer cells OE33; assay: as above; format: cell-based; details: Homo sapiens
Method: as §1

[3] = Inhibitory activity against OE33, small molecules, 72 h incubation, read-out: IC50/nM
[4] = OE33 cells, read-out: IC50 values for inhibiting the growth of esophageal cancer cells

Compound	IC50 [1] [nM]	IC50 [2, 3] [nM]	IC50 [2, 4] [nM]
CC[C@@]1(O)C(=O)OCc2c1cc1n(c2=O)Cc2c-1nc1cc(F)c(C)c3c1c2[C@@H](NC(=O)NN)CC3 [Compound 1, Exatecan-N-aminourea]	50 to 100	50 to 100	
CC[C@@]1(O)C(=O)OCc2c1cc1n(c2=O)Cc2c-1nc1cc(F)c(C)c3c1c2[C@@H](NC(=O)N(C)N)CC3 [Compound 2, Exatecan-N-methyl-N-aminourea]		< 50	< 10
CC[C@@]1(O)C(=O)OCc2c1cc1n(c2=O)Cc2c-1nc1cc(F)c(C)c3c1c2[C@@H](NC(=O)N(C)NC)CC3 [Compound 3, Exatecan-N',N-dimethylaminourea]	< 50	< 50	< 10
CC[C@@]1(O)C(=O)OCc2c1cc1n(c2=O)Cc2c-1nc1cc(F)c(C)c3c1c2[C@@H](NC(=O)C(=O)NN)CC3 [Compound 4, Exatecan-N'-amino oxalyldiamine]	50 to 100	50 to 100	
CC[C@@]1(O)C(=O)OCc2c1cc1n(c2=O)Cc2c-1nc1cc(F)c(C)c3c1c2[C@@H](NC(=O)C(=O)N(C)N)CC3 [Compound 5, Exatecan N'-amino-N-methyloxalyldiamine]	< 50	50 to 100	
CC[C@@]1(O)C(=O)OCc2c1cc1n(c2=O)Cc2c-1nc1cc(F)c(C)c3c1c2[C@@H](NC(=O)CNO)CC3 [Compound 6, 2-hydroxyaminoacetyl exatecan]		50 to 100	
CC[C@@]1(O)C(=O)OCc2c1cc1n(c2=O)Cc2c-1nc1cc(F)c(C)c3c1c2[C@@H](NC(=O)CNOC)CC3 [Compound 7, 2-methoxyaminoacetyl exatecan]		< 50	< 10
CC[C@@]1(O)C(=O)OCc2c1cc1n(c2=O)Cc2c-1nc1cc(F)c(C)c3c1c2[C@@H](NC(=O)CONC)CC3 [Compound 8, 2-methylaminooxyacetyl exatecan]	< 50	< 50	< 10
CC[C@@]1(O)C(=O)OCc2c1cc1n(c2=O)Cc2c-1nc1cc(F)c(C)c3c1c2[C@@H](NC(=O)CN(C)N)CC3 [Compound 9, 2-N-methyl-N-aminoacetyl exatecan]		< 50	< 10
CC[C@@]1(O)C(=O)OCc2c1cc1n(c2=O)Cc2c-1nc1cc(F)c(C)c3c1c2[C@@H](NC(=O)CN(C)NC)CC3 [Compound 10, 2-N-methyl-N-methylaminoacetyl exatecan]		50 to 100	
CC[C@@]1(O)C(=O)OCc2c1cc1n(c2=O)Cc2c-1nc1cc(F)c(C)c3c1c2[C@@H](NC(=O)CN(C)O)CC3 [Compound 11, 2-N-methylhydroxyaminoacetyl exatecan]		50 to 100	
CCONCC(=O)N[C@H]1CCc2c(C)c(F)cc3nc4c(c1c23)Cn1c-4cc2c(c1=O)COC(=O)[C@]2(O)CC [Compound 12, 2-ethoxyaminoacetyl exatecan]		50 to 100	
CC[C@@]1(O)C(=O)OCc2c1cc1n(c2=O)Cc2c-1nc1cc(F)c(C)c3c1c2[C@@H](NC(=O)C1(N)COC1)CC3 [Compound 13, 3-aminooxetane-3-acetyl exatecan]	< 50	< 50	< 10
CC[C@@]1(O)C(=O)OCc2c1cc1n(c2=O)Cc2c-1nc1cc(F)c(C)c3c1c2[C@@H](NC(=O)CO)CC3 [Dxd, reference compound]	< 50	< 50	

Source: patent EP4541796A1, “EXATECAN DERIVATIVES AND USE THEREOF” (Hangzhou Adcoris Biopharma Co., Ltd, priority 2022, dated 2024)
